According to EP4710919A1, “INJECTION PREPARATION AND PREPARATION METHOD THEREFOR, AND COMPATIBLE MEDICINAL LIQUID AND PREPARATION METHOD THEREFOR” (Ascentawits Pharmaceuticals, Ltd., priority 2023, dated 2024):

How the values were obtained:
Type in all cases: physicochemical
[1] = Stability of Compound A in formulations with different adjuvants at 2-8°C (HPLC content, total impurities, moisture); conditions: stored at 2-8°C for 10 days; all formulation solvent systems
Method: For the aforementioned treated Formulations F1 to F4, their specific formulation information is as follows ("p": the formulation obtained by adding ELP to the formulations in Table 3): • F1p: 300 mg API, 7.5 g ELP, and absolute ethanol added to 30 ml; • F2-1p: 3 g propylene glycol, 300 mg API, 7.5 g ELP, and absolute ethanol added to 30 ml; • F2-2p: 9 g propylene glycol, 300 mg API, 7.5 g ELP, and absolute ethanol added to 30 ml; • F3-1p: 1.5 g glycerin, 300 mg API, 7.5 g ELP, and absolute ethanol added to 30 ml; • F3-2p: 4.5 g glycerin, 300 mg API, 7.5 g ELP, and absolute ethanol added to 30 ml; • F4-1: 3 g DMA, 300 mg API, and absolute ethanol added to 30 ml; • F4-2: 9 g DMA, 300 mg API, and absolute ethanol added to 30 ml; • F4-3: 15 g DMA, 300 mg API, and absolute ethanol added to 30 ml.
The stability of Compound A in the aforementioned formulations was investigated. At the predetermined time points (Day 0, Day 5, Day 10), 1 ml samples were taken for HPLC analysis to detect the content, total impurities, and moisture, respectively. Table 4: Stability of Compound A in formulations with different adjuvants at 2-8°C

[2] = Solubility of Compound A in single solvents (water, acidic and alkaline aqueous solutions, isopropanol, methanol) at 25°C
Method: The solubility of Compound A in single solvents (water, acidic and alkaline aqueous solutions, isopropanol, and methanol) was investigated. Table 1: Solubility investigation of Compound A at 25°C

[3] = Compatibility and stability study of ready-to-use intravenous injections (0.02 and 1.00 mg/ml in pH-adjusted 5% glucose injection); conditions: after filtration, room temperature, indoor ambient lighting
Method: In order to provide compatibility information for the injection of the compound of formula I (Compound A, API) and the compatibility solutions, it is necessary to investigate the short-term stability of the injection in 5% glucose injection, a commonly used intravenous diluent. Considering that the API is instable in acidic environments, the pH of the 5% glucose injection is first adjusted to 7.4 using a sodium bicarbonate solution.
1.0 ml of 5% sodium bicarbonate injection was added to 250 ml of 5% glucose injection to adjust the pH, and mixed homogeneously. At this point, the pH of the mixed solution was approximately 8.0.
The Compound A injection (2 ml: 20 mg) was prepared with the pH-adjusted 5% glucose injection into a compatibility solution with a concentration of 0.02 mg/ml, and a compatibility solution with a concentration of 1.00 mg/ml.
0.501 ml of Compound A injection (2 ml: 20 mg) was added to a mixing bag containing 250 ml of 5% glucose injection (whose pH had been pre-adjusted using 5% sodium bicarbonate injection). The mixing bag was repeatedly inverted to ensure homogeneous mixing of the mixed solution before storage and sampling.
27.8 ml of Compound A injection (2 ml: 20 mg) was added to a mixing bag containing 250 ml of 5% glucose injection (whose pH had been pre-adjusted using 5% sodium bicarbonate injection). […]

[4] = Solubility of Compound A in formulations with different adjuvants, observations before and after treatment
Source text: Compound A and Compound AST-3424 are structurally similar (both are nitrobenzyl derivatives and linked to a DNA alkylating agent with an aziridine structure that can effectively kill tumor cells). In addition, by releasing the DNA alkylating agent with an aziridine structure in tumor tissues or cells that overexpress the AKR1C3 enzyme, both compounds enable targeted recognition and treatment of any of the tumor tissues or cells that overexpress […] 1C3 (AKR1C3), and achieve the purpose of killing the tumor tissues or cells. Therefore, based on the same formulation development strategy, the inventors designed and selected an injection formulation similar to that of Compound AST-3424 (the optimal formulation of AST-3424: 10 mg/ml Compound AST-3424 + 75% ethanol + 25% propylene glycol) for use in the formulation study of Compound A.
In addition to the solvents used in the reference formulation of Compound AST-3424, absolute ethanol was employed as a commonly used and relatively safe non-aqueous solvent adjuvant for injection formulations. During the development of the product formulation, it was considered to add N,N-dimethylacetamide (DMA) or polyoxyethylene (35) castor oil (ELP) to improve solubility and facilitate the manufacturing convenience. […]

[5] = Solubility of Compound A in single adjuvant solvents at 25°C (supersaturated solution, sampled every 2 hours); conditions: organic solvent or mixture, thermodynamic from solid; for solubility at 0 h / solubility at 2 h / solubility at 4 h / solubility at 6 h: single solvent
Method: In order to increase the concentration of the active pharmaceutical ingredient in the injection, the solubility of the active pharmaceutical ingredient in single adjuvants was investigated to screen for optimal solvents, hydrotropic agents, or solubilizers. The solubility test of Compound A in single solvents was conducted as follows: Each of the single solvents was taken, a certain amount of API (the compound of formula I) was added at 25°C and stirred, and the dissolution of the API in the solvent system was observed. If the dissolution was complete, additional API was added continuously until a supersaturated solution was obtained. Samples were taken every 2 hours, filtered and assayed for content. Table 2: Solubility data of Compound A in single solvents at 25°C

[6] = Chiral stability study of the 1.00 mg/ml compatibility drug solution of Compound A (room temperature, HPLC contents of A-P1 and A-P2); conditions: in the compatibility solution of the injection formulation
Method: (§1) Compound A is a racemic mixture containing one chiral center. Its two isomers, named A-P1 and A-P2, can be obtained by resolving Compound A. During the formulation and compatibility studies, interconversion between the chiral isomers may affect the drug safety. Therefore, it is necessary to study the chiral stability of Compound A in both its injection formulation and the compatibility drug solution of the injection formulation.
(§2) • (a) The concentrated injection formulation of Compound A (2 ml: 20 mg) was prepared according to the aforementioned confirmed Formulation F19 and its preparation method. • (b) The compatibility drug solution with a concentration of 1.00 mg/ml was prepared according to the process for preparing a compatibility solution as described in Section 5.1.
For the 1.00 mg/ml compatibility drug solution (ready-to-use injection), the solution was stored at room temperature (25°C ± 2°C) under indoor ambient lighting. Samples were taken at different time points (0 h, 2 h, 4 h, 8 h and 24 h) and the contents of A-P1 and A-P2 were determined using the aforementioned HPLC method to evaluate chiral stability. Table 27: Chiral stability study of the concentrated Compound A injection

[7] = Chiral stability study of the concentrated Compound A injection (-20±5°C, HPLC contents of A-P1 and A-P2); conditions: in its injection formulation
Method: as §1, §2
For the injection formulation of Compound A (concentrated injection), the formulation was stored under light-protected, sealed conditions at -20±5°C. Samples were taken at different time points (0 month, 1 month, 3 months), and the contents of A-P1 and A-P2 were determined using the aforementioned HPLC method for stability evaluation.

[8] = Polyethylene glycol 400 (PEG 400)
[9] = Polyoxyethylene (35) castor oil (ELP)

Question: With `O=[N+]([O-])c1ccc(C(OP(=O)(N2CC2)N2CC2)C(F)(F)F)cc1Oc1ccc(-c2ccc(F)cc2)c(F)c1` (racemic) [Compound A] as the molecule, how does the “stability with respect to content, total impurities, and moisture” value [1] read?
Answer: remained relatively stable

Question: What about the Solubility ([2]; 0.1 mol/L HCl solution, 25°C) of the same molecule?
Answer: Practically insoluble

Question: And the Solubility ([2]; 0.1 mol/L NaOH solution, 25°C)?
Answer: Practically insoluble

Question: What about the Solubility ([2]; Isopropanol, 25°C) of the same molecule?
Answer: Practically insoluble

Question: What about the Solubility ([2]; Methanol, 25°C) of the same molecule?
Answer: Sparingly soluble

Question: And the Solubility ([2]; Water, 25°C)?
Answer: Practically insoluble

Question: What about the Solubility ([2]; in water, and acidic and alkaline aqueous solutions) of the same molecule?
Answer: extremely low solubility

Question: What about the “changes in traits, color and clarity of solution, osmotic pressure, pH value, content of Compound A, and related substances” value ([3]; 0.02 mg/ml compatibility solutions, within 8 hours) of the same molecule?
Answer: no significant changes

Question: What about the “changes in traits, color and clarity of solution, osmotic pressure, pH value, and content of Compound A” value ([3]; 1.00 mg/ml compatibility solutions, within 6 hours) of the same molecule?
Answer: no significant changes

Question: And the “dissolution of Compound A” value ([4]; formulation prepared based on the formulation design of Compound AST-3424 (ethanol:propylene glycol 3:1, 300 mg in 30 ml))?
Answer: cannot be completely dissolved

Question: What about the Solubility ([4]; mixed solvent of ethanol and propylene glycol) of the same molecule?
Answer: poorly soluble

Question: And the Solubility ([5]; N,N-dimethylacetamide (single solvent), in N,N-dimethylacetamide)?
Answer: > 200 mg/mL

Question: And the Solubility ([5]; polyoxyethylene (35) castor oil (single solvent), in polyoxyethylene (35) castor oil)?
Answer: ~20 mg/mL

Question: What about the solubility at 0 h ([5]; Ethanol) of the same molecule?
Answer: 8.95 mg/mL

Question: What about the solubility at 2 h ([5]; Ethanol) of the same molecule?
Answer: 9.09 mg/mL

Question: And the solubility at 4 h ([5]; Ethanol)?
Answer: 9.43 mg/mL

Question: What about the solubility at 6 h ([5]; Ethanol) of the same molecule?
Answer: 9.28 mg/mL

Question: And the solubility at 0 h ([5]; N,N-Dimethylacetamide (DMA))?
Answer: 248 mg/mL

Question: And the solubility at 2 h ([5]; N,N-Dimethylacetamide (DMA))?
Answer: 251 mg/mL

Question: And the solubility at 4 h ([5]; N,N-Dimethylacetamide (DMA))?
Answer: 251 mg/mL

Question: And the solubility at 6 h ([5]; N,N-Dimethylacetamide (DMA))?
Answer: 251 mg/mL

Question: What about the solubility at 0 h [5, 8] of the same molecule?
Answer: 12.2 mg/mL

Question: And the solubility at 2 h [5, 8]?
Answer: 11.2 mg/mL

Question: And the solubility at 4 h [5, 8]?
Answer: 15.3 mg/mL

Question: And the solubility at 6 h [5, 8]?
Answer: 16 mg/mL

Question: What about the solubility at 0 h [5, 9] of the same molecule?
Answer: 18.6 mg/mL

Question: And the solubility at 2 h [5, 9]?
Answer: 20.7 mg/mL

Question: And the solubility at 4 h [5, 9]?
Answer: 20.7 mg/mL

Question: And the solubility at 6 h [5, 9]?
Answer: 21.3 mg/mL

Question: What about the chiral stability [6] of the same molecule?
Answer: chirally stable

Question: What about the chiral stability [7] of the same molecule?
Answer: chirally stable
